Holding throughout (test): biochemical
Design in all cases: DiscoverX kinase panel, active-site competition binding (KINOMEscan type), percent of control at one concentration
Common to all, as to details: competition binding, percent of control

The target of assay [1] is PDPK1 (Homo sapiens, UniProt O15530).
For assay [2], the target named is GSK3B (Homo sapiens, UniProt P49841).
The target in assay [3] is PAK1 (Homo sapiens, UniProt Q13153).
Assay [4] deals with T1, RSK4(Kin.Dom.1-N-terminal) (Homo sapiens, UniProt Q9UK32).
T1 construct: gene RPS6KA6; Kin.Dom.1-N-terminal

The target of assay [5] is PIP5K1A (Homo sapiens, UniProt Q99755).
Assay [6] concerns the target T2, ASK2 (Homo sapiens, UniProt O95382).
T2 construct: gene MAP3K6

Assay [7] concerns the target SYK (Homo sapiens, UniProt P43405).
Assay [8] deals with STK16 (Homo sapiens, UniProt O75716).
The target in assay [9] is SNRK (Homo sapiens, UniProt Q9NRH2).
For assay [10], the target named is ULK3 (Homo sapiens, UniProt Q6PHR2).
Assay [11] deals with AXL (Homo sapiens, UniProt P30530).
Assay [12] addresses TGFBR2 (Homo sapiens, UniProt P37173).
Assay [13] concerns the target TTK (Homo sapiens, UniProt P33981).
The target of assay [14] is LATS2 (Homo sapiens, UniProt Q9NRM7).
The target in assay [15] is T3, JNK1 (Homo sapiens, UniProt P45983).
T3 construct: gene MAPK8

The target in assay [16] is T4, CTK (Homo sapiens, UniProt P42679).
T4 construct: gene MATK

For assay [17], the target named is T5, TIE2 (Homo sapiens, UniProt Q02763).
T5 construct: gene TEK

In assay [18] the target is MUSK (Homo sapiens, UniProt O15146).
Assay [19] deals with EGFR(L858R,T790M) (Homo sapiens, UniProt P00533, L858R/T790M).
Assay [20] concerns the target ULK2 (Homo sapiens, UniProt Q8IYT8).
In assay [21] the target is MARK4 (Homo sapiens, UniProt Q96L34).

We go through 1 molecule from publication PMC7206119, “RIP1 inhibition blocks inflammatory diseases but not tumor growth or metastases” (Cell Death and Differentiation, 2019).

Chain of PIP5K1A (Q99755 whole entry): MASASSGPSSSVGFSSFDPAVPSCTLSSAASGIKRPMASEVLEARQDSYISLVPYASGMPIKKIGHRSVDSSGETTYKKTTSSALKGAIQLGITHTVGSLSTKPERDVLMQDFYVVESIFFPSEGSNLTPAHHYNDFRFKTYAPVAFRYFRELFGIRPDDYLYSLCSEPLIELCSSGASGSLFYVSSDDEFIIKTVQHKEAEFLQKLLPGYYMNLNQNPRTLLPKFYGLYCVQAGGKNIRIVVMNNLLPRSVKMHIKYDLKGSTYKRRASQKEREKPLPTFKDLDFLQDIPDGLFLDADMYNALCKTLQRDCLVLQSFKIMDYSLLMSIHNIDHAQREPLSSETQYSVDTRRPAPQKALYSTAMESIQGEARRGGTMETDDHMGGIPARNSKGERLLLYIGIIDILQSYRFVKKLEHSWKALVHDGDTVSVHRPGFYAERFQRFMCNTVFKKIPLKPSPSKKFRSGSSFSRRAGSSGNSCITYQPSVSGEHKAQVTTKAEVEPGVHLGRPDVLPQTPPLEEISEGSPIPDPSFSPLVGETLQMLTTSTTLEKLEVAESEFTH
T2 sequence (O95382 whole entry): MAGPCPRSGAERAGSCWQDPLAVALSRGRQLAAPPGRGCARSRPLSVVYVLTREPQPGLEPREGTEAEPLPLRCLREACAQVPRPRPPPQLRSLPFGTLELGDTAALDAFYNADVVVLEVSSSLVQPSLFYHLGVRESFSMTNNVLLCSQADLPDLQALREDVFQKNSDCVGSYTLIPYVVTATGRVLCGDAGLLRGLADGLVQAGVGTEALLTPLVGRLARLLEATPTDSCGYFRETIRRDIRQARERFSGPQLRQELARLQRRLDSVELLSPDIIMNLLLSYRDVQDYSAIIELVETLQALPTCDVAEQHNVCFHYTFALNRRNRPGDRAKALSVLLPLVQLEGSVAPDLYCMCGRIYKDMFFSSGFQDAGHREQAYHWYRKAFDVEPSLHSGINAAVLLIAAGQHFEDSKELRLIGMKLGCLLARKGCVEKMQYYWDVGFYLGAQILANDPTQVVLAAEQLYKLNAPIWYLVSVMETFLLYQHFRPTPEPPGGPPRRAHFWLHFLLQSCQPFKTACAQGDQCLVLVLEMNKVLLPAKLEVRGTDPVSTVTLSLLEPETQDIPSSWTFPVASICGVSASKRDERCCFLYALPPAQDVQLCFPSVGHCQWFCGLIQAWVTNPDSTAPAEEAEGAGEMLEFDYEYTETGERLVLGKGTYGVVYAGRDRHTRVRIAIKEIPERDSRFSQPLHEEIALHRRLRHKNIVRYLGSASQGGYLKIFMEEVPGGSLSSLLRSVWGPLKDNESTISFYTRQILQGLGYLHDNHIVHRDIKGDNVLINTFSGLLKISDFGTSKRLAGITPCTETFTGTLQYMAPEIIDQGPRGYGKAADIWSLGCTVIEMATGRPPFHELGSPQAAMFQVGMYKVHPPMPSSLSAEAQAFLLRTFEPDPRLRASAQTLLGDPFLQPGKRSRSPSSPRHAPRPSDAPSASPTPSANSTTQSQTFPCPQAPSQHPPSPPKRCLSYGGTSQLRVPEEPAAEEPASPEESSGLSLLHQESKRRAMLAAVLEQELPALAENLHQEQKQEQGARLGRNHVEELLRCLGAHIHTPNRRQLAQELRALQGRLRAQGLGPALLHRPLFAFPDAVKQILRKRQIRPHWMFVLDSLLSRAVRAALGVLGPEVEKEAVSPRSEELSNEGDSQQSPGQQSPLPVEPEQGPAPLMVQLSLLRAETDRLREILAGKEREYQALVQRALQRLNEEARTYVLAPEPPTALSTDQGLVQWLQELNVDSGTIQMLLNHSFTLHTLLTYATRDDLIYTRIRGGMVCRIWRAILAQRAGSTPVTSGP
Chain of GSK3B (P49841 whole entry): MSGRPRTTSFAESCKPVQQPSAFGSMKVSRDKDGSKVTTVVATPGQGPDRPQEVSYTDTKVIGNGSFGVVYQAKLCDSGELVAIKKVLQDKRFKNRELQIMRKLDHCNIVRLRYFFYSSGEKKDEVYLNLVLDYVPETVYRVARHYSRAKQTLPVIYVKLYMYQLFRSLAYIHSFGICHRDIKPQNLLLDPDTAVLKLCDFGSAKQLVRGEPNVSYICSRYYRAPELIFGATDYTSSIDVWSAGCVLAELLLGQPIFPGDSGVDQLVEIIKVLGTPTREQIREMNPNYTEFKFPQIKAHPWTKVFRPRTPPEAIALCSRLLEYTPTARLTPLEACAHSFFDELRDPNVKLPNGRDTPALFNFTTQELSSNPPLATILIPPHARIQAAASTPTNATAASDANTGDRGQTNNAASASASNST
T3 sequence (P45983 whole entry): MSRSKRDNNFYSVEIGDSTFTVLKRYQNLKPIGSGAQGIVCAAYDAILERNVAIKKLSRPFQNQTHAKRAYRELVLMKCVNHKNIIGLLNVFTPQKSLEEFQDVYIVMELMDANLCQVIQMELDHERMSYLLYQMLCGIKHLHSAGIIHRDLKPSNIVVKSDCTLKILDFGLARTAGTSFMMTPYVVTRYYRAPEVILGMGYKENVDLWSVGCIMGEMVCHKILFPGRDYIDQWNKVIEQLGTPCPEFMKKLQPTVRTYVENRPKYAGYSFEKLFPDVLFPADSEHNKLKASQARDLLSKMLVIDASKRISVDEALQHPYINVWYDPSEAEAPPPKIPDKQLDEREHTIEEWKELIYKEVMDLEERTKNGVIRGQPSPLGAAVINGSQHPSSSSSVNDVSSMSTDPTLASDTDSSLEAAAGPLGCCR
Chain of TTK (P33981 whole entry): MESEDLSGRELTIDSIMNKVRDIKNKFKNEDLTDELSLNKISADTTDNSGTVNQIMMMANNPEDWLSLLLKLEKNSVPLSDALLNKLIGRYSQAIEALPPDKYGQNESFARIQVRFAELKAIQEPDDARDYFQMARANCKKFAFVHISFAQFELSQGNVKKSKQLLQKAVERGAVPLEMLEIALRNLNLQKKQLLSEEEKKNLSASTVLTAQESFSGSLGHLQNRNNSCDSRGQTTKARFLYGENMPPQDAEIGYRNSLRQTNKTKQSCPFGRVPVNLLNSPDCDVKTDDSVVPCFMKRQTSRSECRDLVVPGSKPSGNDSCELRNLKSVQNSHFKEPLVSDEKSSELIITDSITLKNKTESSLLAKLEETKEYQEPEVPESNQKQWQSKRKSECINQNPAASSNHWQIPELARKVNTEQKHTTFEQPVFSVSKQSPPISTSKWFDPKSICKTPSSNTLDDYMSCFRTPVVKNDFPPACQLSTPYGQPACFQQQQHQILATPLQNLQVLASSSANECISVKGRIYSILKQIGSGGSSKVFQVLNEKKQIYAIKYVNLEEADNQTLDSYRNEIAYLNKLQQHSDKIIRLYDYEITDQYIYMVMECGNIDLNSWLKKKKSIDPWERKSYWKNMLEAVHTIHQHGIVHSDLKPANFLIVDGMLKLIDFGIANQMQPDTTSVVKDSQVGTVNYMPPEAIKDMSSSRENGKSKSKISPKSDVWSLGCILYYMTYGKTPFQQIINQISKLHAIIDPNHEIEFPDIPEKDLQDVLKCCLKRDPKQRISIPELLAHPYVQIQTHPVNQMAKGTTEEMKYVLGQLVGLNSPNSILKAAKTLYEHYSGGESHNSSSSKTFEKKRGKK
Chain of TGFBR2 (P37173 whole entry): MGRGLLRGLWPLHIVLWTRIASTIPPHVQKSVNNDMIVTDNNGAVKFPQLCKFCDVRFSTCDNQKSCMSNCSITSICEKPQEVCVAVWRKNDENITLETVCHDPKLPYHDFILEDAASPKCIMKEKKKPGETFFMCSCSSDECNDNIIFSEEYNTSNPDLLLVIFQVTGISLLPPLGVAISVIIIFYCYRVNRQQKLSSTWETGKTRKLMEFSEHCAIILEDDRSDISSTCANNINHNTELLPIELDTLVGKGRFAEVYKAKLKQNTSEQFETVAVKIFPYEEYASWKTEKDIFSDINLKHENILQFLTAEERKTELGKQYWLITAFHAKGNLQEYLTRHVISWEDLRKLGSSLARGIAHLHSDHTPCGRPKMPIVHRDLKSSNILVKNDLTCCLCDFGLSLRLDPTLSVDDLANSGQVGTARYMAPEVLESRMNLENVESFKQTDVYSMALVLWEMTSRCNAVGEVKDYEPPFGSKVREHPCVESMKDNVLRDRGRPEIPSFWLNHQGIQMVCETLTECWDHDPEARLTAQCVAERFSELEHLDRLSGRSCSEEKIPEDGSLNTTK
Chain of AXL (P30530 whole entry): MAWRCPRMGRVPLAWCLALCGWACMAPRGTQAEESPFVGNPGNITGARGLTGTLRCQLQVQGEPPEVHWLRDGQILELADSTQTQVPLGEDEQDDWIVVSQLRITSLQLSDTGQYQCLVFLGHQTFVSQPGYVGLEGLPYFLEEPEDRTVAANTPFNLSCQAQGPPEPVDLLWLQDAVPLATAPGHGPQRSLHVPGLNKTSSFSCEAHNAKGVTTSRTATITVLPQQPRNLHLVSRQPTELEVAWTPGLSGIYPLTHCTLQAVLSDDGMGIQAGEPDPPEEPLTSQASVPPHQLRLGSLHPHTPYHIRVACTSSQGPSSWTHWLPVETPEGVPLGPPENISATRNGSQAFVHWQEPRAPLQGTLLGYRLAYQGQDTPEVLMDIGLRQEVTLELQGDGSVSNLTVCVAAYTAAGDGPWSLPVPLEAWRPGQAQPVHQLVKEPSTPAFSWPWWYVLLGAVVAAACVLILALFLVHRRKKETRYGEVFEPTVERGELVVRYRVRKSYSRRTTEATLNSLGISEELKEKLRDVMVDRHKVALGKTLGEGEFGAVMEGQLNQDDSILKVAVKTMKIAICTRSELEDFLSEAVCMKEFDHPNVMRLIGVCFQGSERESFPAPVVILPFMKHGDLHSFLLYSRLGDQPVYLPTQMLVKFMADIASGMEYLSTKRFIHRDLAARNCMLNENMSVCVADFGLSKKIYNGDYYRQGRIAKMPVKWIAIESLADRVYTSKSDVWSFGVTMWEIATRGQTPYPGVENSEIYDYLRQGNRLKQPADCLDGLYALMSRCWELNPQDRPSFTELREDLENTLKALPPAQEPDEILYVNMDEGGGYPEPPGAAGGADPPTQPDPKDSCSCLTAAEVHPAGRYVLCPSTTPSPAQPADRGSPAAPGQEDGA

As for `COc1cc2c(cn1)N(C)C(=O)[C@@H](NC(=O)c1nc3n(n1)[C@H](c1ccccc1)CC3)CC2` [GNE684, (S)-N-((S)-7-methoxy-1-methyl-2-oxo-2,3,4,5-tetrahydro-1H-pyrido[3,4-b]azepin-3-yl)-5-phenyl-6,7-dihydro-5H-pyrrolo[1,2-b][1,2,4]triazole-2-carboxamide], the remaining binding at 10 µM in [1] was found to be 91%; in assay [2] it was 96%; in [3], 94%; in [4] it was 100%; in [5], 99%; in [6], 98%. Also, the remaining binding at 10 µM in assay [7] is 75%; in assay [8], 100%; in assay [9], 93%; in [10], 100%; in [11], 96%; in assay [12], 94%. In addition, the remaining binding at 10 µM in [13] worked out at 100%; in assay [14] it was 84%; in assay [15], 97%; in assay [16] it was 93%; in assay [17], 92%; in assay [18], 98%. The remaining binding at 10 µM in assay [19] came out at 100%; in [20] it was 100%; in assay [21], 60%.
